Data reported in the NIST ThermoML archive (doi:10.1021/je400830w).
Numbers after ± are expanded uncertainties.

Key:
[1] = 100 kPa, Liquid; for viscosity: Falling or rolling sphere viscometry; for mass density: Vibrating tube method
[2] = refractive index (Na D-line) (dimensionless); conditions: 100 kPa, Liquid, Standard Abbe refractometry

NCCO [2-aminoethan-1-ol]
Conditions	mass density, [1] [kg/m3]	refractive index, [2]	viscosity, [1] [mPa·s]
298.15 K	1012.38 ± 0.25	1.45406 ± 0.00037	18.89 ± 0.18
303.15 K	1009.35 ± 0.25	1.45241 ± 0.00037	15.11 ± 0.14
313.15 K	1002.16 ± 0.24	1.449 ± 0.001	10.03 ± 0.094
323.15 K	994.4 ± 0.24	1.44522 ± 0.00037	6.983 ± 0.065
333.15 K	986.24 ± 0.24	1.44198 ± 0.00037	4.972 ± 0.047
